Patent US20110269799A1 (priority 2008, published 2011)
“And” between values parts separate entries of the source, which are not always exact repeats. Equal values may be shown once. Read-outs that look alike come from different tables or passages of the source. Marks after values point to notes of the source that are not given here.

Columns and labels:
[1] = system: patients with atrial fibrillation
Procedure: PETRO-Ex began while the PETRO study was ongoing and investigators were initially kept blinded to patient treatment group until PETRO was completed. Unblinding investigators to patient treatment was possible thereafter.
Data were summarized descriptively; no hypothesis was to be tested. Events were analyzed on the basis of the treatment at onset. Incidences were reported as number of patients with events as well as normalized to 100 patient-years on the respective treatment.
Patients who completed PETRO on 50 mg b.i.d. were switched to 150 mg q.d. upon entry in the PETRO-Ex study (N=93 patients). […] Patients who were down titrated to 50 mg q.d. based on a glomerular filtration rate<50 mL/min during PETRO were excluded from the long-term trial; patients down-titrated in other dose levels remained on the q.d. treatment at that dose.

[2] = system: patients with chronic atrial fibrillation; experiment: PETRO phase 2 12-week dose finding study, dabigatran etexilate alone or with aspirin vs. warfarin; type: in vivo, human
Excerpt: Primary endpoints were bleeding events and changes in D-dimer. […] Minor bleeding was dose related.

[3] = system: cytochrome P-450 drug metabolizing enzymes; experiment: Cytochrome P-450 metabolism, induction and inhibition; type: in vitro ADME
[4] = system: patients with atrial fibrillation at risk of stroke
Excerpt: Median follow-up was 2.0 years and the primary outcome was stroke or systemic embolism.
Patients were recruited from 951 clinical centers in 44 countries. In brief, patients were eligible if they had atrial fibrillation documented on electrocardiogram at screening or within 6 months; and at least one of the following: prior stroke or transient ischemic attack; left ventricular ejection fraction less than 40%; New York Heart Association heart failure symptoms of Class 2 or greater within 6 months; age at least 75 years; or age at least 65 years with diabetes mellitus, hypertension or coronary artery disease.
The time in therapeutic range was calculated by the method of Rosendaal (Rosendaal F R, et al., A method to determine the optimal intensity of oral anticoagulant therapy, Thromb Haemost, 1993, 69:236-239), excluding INRs from the first week and after discontinuations. […] Concomitant use of aspirin (less than 100 mg/day) or other antiplatelet agents was allowed.
Liver function testing was performed monthly during the first year of follow-up.
The primary study outcome was stroke or systemic embolism. The primary safety outcome was major hemorrhage. Secondary outcomes were stroke, systemic embolism and death. Other outcomes were myocardial infarction, pulmonary embolism, transient ischemic attacks, and hospitalizations. The primary net benefit-risk outcome was the composite of stroke, systemic embolism, pulmonary embolism, myocardial infarction, death or major hemorrhage. Stroke was defined as sudden onset of focal neurological deficit consistent with the territory of a major cerebral artery and categorized as ischemic, hemorrhagic or unspecified. Hemorrhagic transformation of ischemic stroke was not considered as hemorrhagic stroke. Intracranial hemorrhage included hemorrhagic stroke and sub-dural or sub-arachnoid hemorrhage. Systemic embolism was an acute vascular occlusion of an extremity or organ documented by imaging, surgery or autopsy. Major bleeding was defined as a reduction in hemoglobin level of at least […] or transfusion of at least 2 units of blood or symptomatic bleeding in a critical area or organ. Life-threatening bleeding was a subset of major bleeding that included fatal bleeding, symptomatic intracranial bleeding, bleeding with hemoglobin decrease of more than […] or requiring transfusion of more than 4 units of blood or requiring inotropic agents or necessitating surgery. All other bleeding was considered minor.
All primary and secondary outcome events were blindly and doubly adjudicated. An international team of adjudicators reviewed documents in local languages after blinding; or documents were translated by a independent group and blinded centrally. All transient ischemic attacks were reviewed to ensure that strokes had not been missed. To detect possible unreported events, symptom questionnaires were regularly administered to patients, and adverse events and hospitalization reports were scrutinized for unreported primary or secondary outcomes.
If maximum of the two p-values was greater than 0.025, the minimum of the two p-values must be less than 0.0125, one-sided, to claim statistical significance. All analyses were based on intention-to-treat.

[5] = individual patients with LFT abnormalities, one patient (age, sex) per table line

CCCCCCOC(=O)NC(=N)c1ccc(NCc2nc3cc(C(=O)N(CCC(=O)OCC)c4ccccn4)ccc3n2C)cc1 [Dabigatran etexilate, 1-methyl-2-[N-[4-(N-n-hexyloxycarbonylamidino)phenyl]aminomethyl]benzimidazol-5-ylcarboxylic acid-N-(2-pyridyl)-N-(2-ethoxycarbonylethyl)amides]
Adverse Events leading to premature discontinuation, rate ([1]; 50 mg b.i.d.): 21.3 % per year
Thromboembolic events ([1]; 50 mg b.i.d.): more than 12 events per 100 years
ALT or AST > 2xULN, rate ([1]; 150 mg b.i.d.): 3.1 % per year
ALT or AST > 3xULN and Bili > 2xULN within 30 days, rate ([1]; 150 mg b.i.d.): 0.4 % per year
ALT or AST > 3xULN, rate ([1]; 150 mg b.i.d.): 1.9 % per year
ALT or AST > 5xULN, rate ([1]; 150 mg b.i.d.): 1.0 % per year
Adverse Events leading to premature discontinuation, rate ([1]; 150 mg b.i.d.): 9.8 % per year
Major Bleeds, of these without aspirin, rate ([1]; 150 mg b.i.d.): 3.2 % per year
Major Bleeds, rate ([1]; 150 mg b.i.d.): 4.2 % per year
Major Bleeds, with aspirin, rate ([1]; 150 mg b.i.d.): 8.7 % per year
Stroke and Systemic Thromboembolism, rate ([1]; 150 mg b.i.d.): 1.0 % per year
ALT or AST > 2xULN, rate ([1]; 150 mg q.d.): 3.4 % per year
Adverse Events leading to premature discontinuation, rate ([1]; 150 mg q.d.): 13.7 % per year
Major Bleeds, of these without aspirin, rate ([1]; 150 mg q.d.): 6.5 % per year
Major Bleeds, rate ([1]; 150 mg q.d.): 5.1 % per year
Thromboembolic events ([1]; 150 mg q.d., per 100 years): about 5 events
ALT or AST > 2xULN, rate ([1]; 300 mg b.i.d.): 4.9 % per year
ALT or AST > 3xULN, rate ([1]; 300 mg b.i.d.): 2.4 % per year
ALT or AST > 5xULN, rate ([1]; 300 mg b.i.d.): 1.2 % per year
Adverse Events leading to premature discontinuation, rate ([1]; 300 mg b.i.d.): 25.6 % per year
Bleeding events ([1]; 300 mg b.i.d.): more than 12 per 100 years
Major Bleeds, of these without aspirin, rate ([1]; 300 mg b.i.d.): 6.3 % per year
Major Bleeds, rate ([1]; 300 mg b.i.d.): 12.2 % per year
Major Bleeds, with aspirin, rate ([1]; 300 mg b.i.d.): 32.7 % per year
Thromboembolic events ([1]; 300 mg b.i.d.): about 1 event per 100 years
ALT or AST > 2xULN, rate ([1]; 300 mg q.d.): 1.5 % per year
ALT or AST > 3xULN and Bili > 2xULN within 30 days, rate ([1]; 300 mg q.d.): 0.5 % per year
ALT or AST > 3xULN, rate ([1]; 300 mg q.d.): 1.5 % per year
ALT or AST > 5xULN, rate ([1]; 300 mg q.d.): 1.5 % per year
Adverse Events leading to premature discontinuation, rate ([1]; 300 mg q.d.): 9.6 % per year
Major Bleeds, of these without aspirin, rate ([1]; 300 mg q.d.): 2.1 % per year
Major Bleeds, rate ([1]; 300 mg q.d.): 2.5 % per year
Major Bleeds, with aspirin, rate ([1]; 300 mg q.d.): 3.6 % per year
Thromboembolic events ([1]; 300 mg q.d., per 100 years): more than 2 events
Major bleeding events (per 100 patient years) ([1]; PETRO-Ex, 150 mg b.i.d., without concomitant aspirin): 3.2%*
LFT abnormalities > 3 xULN (per 100 patient years) ([1]; PETRO-Ex, all doses): 1.7%
ALT or AST > 2xULN, rate ([1]; Total, all doses): 2.9 % per year
ALT or AST > 3xULN and Bili > 2xULN within 30 days, rate ([1]; Total, all doses): 0.4 % per year
ALT or AST > 3xULN, rate ([1]; Total, all doses): 1.7 % per year
ALT or AST > 5xULN, rate ([1]; Total, all doses): 1.1 % per year
Adverse Events leading to premature discontinuation, rate ([1]; Total, all doses): 11.5 % per year
Major Bleeds, of these without aspirin, rate ([1]; Total, all doses): 3.2 % per year
Major Bleeds, rate ([1]; Total, all doses): 4.2 % per year
Major Bleeds, with aspirin, rate ([1]; Total, all doses): 8.5 % per year
Major bleeding events ([2]; 300 mg b.i.d. plus ASA groups, 12 weeks): 6%
Minor bleeding ([2]; 50, 150, 300 mg b.i.d.): dose related
Elevated transaminases >3x upper limit of normal (ULN) ([2]; all dabigatran etexilate-treated patients (432)): 0.9%
Metabolism by, induction or inhibition of cytochrome P-450 enzymes [3]: not metabolized by and does not induce or inhibit cytochrome P-450 drug metabolizing enzymes

[H]/N=C(/N)c1ccc(NCc2nc3cc(C(=O)N(CCC(=O)O)c4ccccn4)ccc3n2C)cc1 [Dabigatran]
Fatal bleeding events, rate ([1]; all doses): 0.5 % per year
LFT abnormality ALT/ULN [1, 5]: >5x x ULN (4×) and >5x^# x ULN (2×) and >3x x ULN (5×) and >3x^# x ULN
LFT abnormality AST/ULN [1, 5]: >5x^# x ULN (4×) and >5x x ULN (4×) and >3x x ULN (5×)
Change in D-dimer levels ([2]; 12 weeks): comparable to warfarin
Rate of hemorrhagic stroke ([4]; 110 mg b.i.d.): 0.12 % per year
Stroke, Ischemic or Unspecified, Rate ([4]; 110 mg b.i.d.): 1.35 /100 Person Years
Stroke, systemic embolism, pulmonary embolism, myocardial infarction death or major bleed (net benefit), Rate ([4]; 110 mg b.i.d.): 7.37 /100 Person Years
Extracranial Bleeding, RR ([4]; 110 mg vs. Warfarin): 0.93
First Hospitalization, RR ([4]; 110 mg vs. Warfarin): 0.92
Non-disabling Stroke Modified Rankin 0-2, RR ([4]; 110 mg vs. Warfarin): 0.87
Stroke or systemic embolism, RR ([4]; 110 mg vs. Warfarin): 0.91
Stroke, Hemorrhagic, RR ([4]; 110 mg vs. Warfarin): 0.31
Stroke, RR ([4]; 110 mg vs. Warfarin): 0.92
Stroke, systemic embolism, pulmonary embolism, myocardial infarction death or major bleed (net benefit), RR ([4]; 110 mg vs. Warfarin): 0.92
Rate of hemorrhagic stroke ([4]; 150 mg b.i.d.): 0.10 % per year
Stroke, systemic embolism, pulmonary embolism, myocardial infarction death or major bleed (net benefit), Rate ([4]; 150 mg b.i.d.): 7.22 /100 Person Years
Stroke, Ischemic or Unspecified, RR ([4]; 150 mg vs. 110 mg): 0.68
Stroke, RR ([4]; 150 mg vs. 110 mg): 0.70
Stroke, systemic embolism, pulmonary embolism, myocardial infarction death or major bleed (net benefit), RR ([4]; 150 mg vs. 110 mg): 0.98
First Hospitalization, RR ([4]; 150 mg vs. Warfarin): 0.97
Major Bleeding, Other Major, RR ([4]; 150 mg vs. Warfarin): 1.07
Non-disabling Stroke Modified Rankin 0-2, RR ([4]; 150 mg vs. Warfarin): 0.62
Stroke or systemic embolism, RR ([4]; 150 mg vs. Warfarin): 0.66
Stroke, Hemorrhagic, RR ([4]; 150 mg vs. Warfarin): 0.26
Stroke, Ischemic or Unspecified, RR ([4]; 150 mg vs. Warfarin): 0.76
Stroke, RR ([4]; 150 mg vs. Warfarin): 0.64
Stroke, systemic embolism, pulmonary embolism, myocardial infarction death or major bleed (net benefit), RR ([4]; 150 mg vs. Warfarin): 0.90
Hepatotoxicity in serial measurement of liver function tests ([4]; in vivo): no evidence of hepatotoxicity
